Values of other authors in patent US20200113872A1, “Ifetroban Treatment for Systemic Sclerosis” (Cumberland Pharmaceuticals Inc., priority 2016, published 2020).

Test system: pulmonary artery banded mice

For `CCCCCNC(=O)c1coc([C@H]2[C@@H](Cc3ccccc3CCC(=O)O)[C@@H]3CC[C@H]2O3)n1` [ifetroban, [1S-(1α,2α,3α,4α)]-2-[[3-[4-[(Pentylamino)carbonyl]-2-oxazolyl]-7-oxabicyclo[2.2.1]hept-2-yl]methyl]-benzenepropanoic acid], the “right ventricular expression of anti-fibrotic and muscularization genes” value is listed as “augmented”, the “ratio of the early (E) to late (A) ventricular filling velocities (E/A ratio)” value (one indicator of cardiac efficiency) is listed as “increased” and the “expression of genes associated with inflammation” value (right ventricle) is listed as “decreased”. For the same compound, the cardiomyocyte hypertrophy (treatment with ifetroban) was “reduced” and the right ventricular fibrosis (treatment with ifetroban) was “reduced”.
